According to doi:10.1101/2022.07.07.499167v1, “The thermodynamic state of aerobic glycolytic flux plays a critical role in stabilizing aerobic glycolytic flux of cancer cells” (biorxiv, 2022):

Legend:
pure recombinant PKM2 [1] = target: T1, pure recombinant PKM2 (Homo sapiens, UniProt P14618); test: LDH-coupled pyruvate kinase assay, NADH absorbance […] nm; assay type: biochemical; settings: 0.2 mM PEP, 2 mM ADP, 5 mM MgCl2, 100 mM KCl, pH 7.4, 37 °C; no FBP; allosteric inhibitor
T1 construct: gene PKM; PKM2 cDNA in pQE-30, 6xHis tag (removal not mentioned), expressed in E. coli M15 (pREP4), Ni-NTA purified

pure recombinant PKM2 [2] = target: T1, pure recombinant PKM2; test: as above; assay type: biochemical; settings: 0.2 mM PEP, 2 mM ADP, 5 mM MgCl2, 100 mM KCl, pH 7.4, 37 °C; no inhibitor mixture; allosteric activator

T1 sequence (P14618 2-531): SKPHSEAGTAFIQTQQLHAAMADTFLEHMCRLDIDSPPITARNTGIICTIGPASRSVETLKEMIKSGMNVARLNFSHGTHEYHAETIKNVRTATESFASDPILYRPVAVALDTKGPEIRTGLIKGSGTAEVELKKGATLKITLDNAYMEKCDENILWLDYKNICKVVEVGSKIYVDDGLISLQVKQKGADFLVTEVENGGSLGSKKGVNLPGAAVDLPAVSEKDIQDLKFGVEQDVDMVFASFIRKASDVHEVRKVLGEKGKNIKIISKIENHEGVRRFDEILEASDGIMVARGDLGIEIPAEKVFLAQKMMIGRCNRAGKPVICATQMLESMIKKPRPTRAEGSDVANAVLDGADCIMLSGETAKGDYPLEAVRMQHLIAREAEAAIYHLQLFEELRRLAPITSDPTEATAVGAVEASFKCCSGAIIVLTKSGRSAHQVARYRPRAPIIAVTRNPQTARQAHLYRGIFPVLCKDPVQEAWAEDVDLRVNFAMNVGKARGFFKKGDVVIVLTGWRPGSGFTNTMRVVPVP

Row | IC50 (pure recombinant PKM2 [1]) [µM] | AC50 (pure recombinant PKM2 [2]) [µM] | Structure (SMILES)
1 | – | 339 ± 123 | N[C@@H](CO)C(=O)O [Serine]
2 | 254 ± 104 | – | N[C@@H](Cc1c[nH]c2ccccc12)C(=O)O [Tryptophan]
3 | 373 ± 175 | – | CC(C)[C@H](N)C(=O)O [Valine]

Continued, molecule first:

Row | Structure (SMILES) | IC50 (pure recombinant PKM2 [1]) [µM] | AC50 (pure recombinant PKM2 [2]) [µM]
4 | C[C@H](N)C(=O)O [Alanine] | 227 ± 174 | –
5 | O=P(O)(O)OC[C@H]1OC(O)(COP(=O)(O)O)[C@@H](O)[C@@H]1O (stereo partly drawn) [FBP] | – | 0.0434 ± 0.0217
6 | N[C@@H](Cc1ccccc1)C(=O)O [Phenylalanine] | 40.9 ± 13.4 | –
